Values of other authors as cited in patent publication US20200390726A1, “Compositions for Improved Neuroprotective Effects and Methods of Making Same” (Guardion Health Sciences, LLC, priority 2019, published 2020).

Test system: glaucoma patients
Settings: literature, anthocyanins 50 mg daily, PEA 600 mg per day, Mirtogenol dose not given

## CCCCCCCCCCCCCCCC(=O)NCCO [PEA, Palmitoylethanolamide]
Citicoline 500 to 1,000 mg daily
  effect on visual field: improvement in the visual field
Forskolin 1% eye drops
  effect on intraocular pressure (IOP): lowering of IOP
